Series [1] is described as follows: Binding affinity to transmembrane model peptide-1 of domain 4 segment 6 of rat skeletal muscle Nav1.4 by Marquardt and Levenberg algorithm analysis.
Series [2] can be described thus: Toxicity in ip dosed mouse. In kind it is organism-based. The settings on record: in vivo.
The nature of series [3]: Binding affinity to transmembrane model peptide-2 of domain 4 segment 6 of rat skeletal muscle Nav1.4 by Marquardt and Levenberg algorithm analysis.

pKd: −log10 of the molar value.

For `C[C@H]1CC[C@@H]2N(C1)C[C@@H]1[C@](O)([C@@H](O)C[C@@]3(O)[C@@H]4CC[C@@H]5[C@]6(O)O[C@@]4(C[C@@]13O)[C@@]5(C)CC[C@@H]6O)[C@]2(C)O` [VERACEVINE], in series [1], the pKd was 3.05. For the same compound, the LD50 in series [2] is above 100 mg/kg.
As for `COc1ccc(C(=O)O[C@H]2CC[C@@]3(C)[C@@H]4CC[C@H]5[C@]6(O)C[C@H](O)[C@@]7(O)[C@@H](CN8C[C@@H](C)CC[C@H]8[C@@]7(C)O)[C@]6(O)C[C@@]53O[C@]24O)cc1OC` [VERATRIDINE], the pKd in series [1] is 2.85; in series [3] it was 3.31. In series [2], this compound yielded an LD50 of 9 mg/kg.

For the origin of these results see ChEMBL document CHEMBL2021763, “Solution NMR analysis of the binding mechanism of DIVS6 model peptides of voltage-gated sodium channels and the lipid soluble alkaloid veratridine” (Bioorg Med Chem, 2012).
